Measured values published in patent US20080045584A1, “Use of Docetaxel for Treating Hepatocellular Carcinoma” (priority 1999, published 2008).
Like-named read-outs stand apart in the source and are kept apart here.

Experiments:
[1] = system: Hep G2 cells; assay: Cell viability study: MTT assay; format: cell-based, human; conditions: for viability: Hep G2, 1 μM
[2] = system: Hep 3B cells; conditions: 0.01 μM, 72 hours
Description: (§1) The experiments detailed below involve human hepatoma cell lines Hep3B (ATCC designation HB 8064), HepG2 (ATCC designation HB 8065) and HA22T/VGH, and murine hepatoma cell line Hepa 1-6. These cells were cultured in DMEM (GIBCO, BRL) containing 10% fetal bovine serum (Hyclone), 0.01 mg/ml gentamycin and 0.1 mM non-essential amino acid. Cells were grown in a CO2 incubator at 37° C., with 5% CO2 and 95% filtered air.
(§2) In the experiments detailed below the above hepatoma cells were treated with different concentrations of paclitaxel (0.001-10 μM) and docetaxel (0.001-10 μM) for 24 hours and 72 hours. Paclitaxel was dissolved in dimethylsulfoxide (DMSO) and docetaxel was dissolved in ethanol as stock solutions. The final concentration of vehicle was less than 0.1%.
(§3) Cells were cultured in a 96 well cell culture cluster (COSTAR) at a density of 4×10^4 cells/ml. After drug treatment for 24 hours or 72 hours, medium was discarded and replaced with an equal volume (100 μl) of fresh medium containing MTT (0.456 mg/ml; 3-[4,5-Dimethylthiazol-2-yl]2,5-diphenyl-tetrazolium bromide) and incubated for 1.5 hours at 37° C. The fresh medium was then discarded, and 100 μl DMSO was then added. Cell viability was determined by colorimetric comparison by reading OD values from a microplate reader (SPECTRA MAX250) at an absorption wavelength of 570 nm.
(§4) Data are the mean i standard error of mean from duplicate samples of three independent experiments.

[3] = system: Hepa 1-6 cells; conditions: Hepa 1-6, 1 μM
Description: as §1, §2, §3, §4

[4] = system: hepatoma cell lines (Hep G2, Hep 3B, HA22T/VGH and Hepa 1-6); assay: Cell viability study: MTT assay, all lines (FIG. 1); format: cell-based
[5] = system: Hep G2 cells; assay: Propidium iodide (PI) exclusion assay, flow cytometry; format: cell-based, human
Description: Cells were grown on 5-cm^2 flasks (CORNING) and treated with paclitaxel and docetaxel as set out above. Propidium iodide (10 μg/ml) was then added for 15 minutes incubation at 37° C. Then, medium was collected prior to harvest of the adherent cells. Both suspended and attached cells were collected and resuspended with 500 μl PBS for flow cytometry analysis as set out below. Debris signals were removed by FSC-SSC gating.
(§5) Cells (10000) were analyzed on a Becton Dickinson FACS Calibur flow cytometer using an argon-ion laser (15 mWatt) with incident beam at 488 nm. For PI exclusion assay, red fluorescence was collected through a 585 nm filter and the cell debris signals were removed by FSC-SSC gating. Data were acquired and analyzed using FACS/CELL Quest software on a Power Macintosh 7600/120 computer. Apoptotic cells and cells at specific cycle phases were determined by ModFit LT software.
Data are mean±standard error of mean from duplicated sample of at least three independent experiments. Cells were treated with drugs for 24-72 hours, and membrane permeability was measured by flowcytometric analysis of propidium exclusion in viable hepatoma cells. Data are the percentage of cells with intact cell membrane as compared to control

[6] = system: HA22T/VGH cells; assay: Flow cytometric analysis of DNA content (cell cycle, sub-G0/G1); format: cell-based, human
Description: (§6) Lysing buffer (0.5% Triton X-100, 0.2 μg/ml Na2EDTA.2H2O, and 1% bovine serum albumin in PBS) was added to the cell pellets which were then left on ice for 15 minutes. 100% methanol pre-cooled to −20° C. was then added to the mixture, which was then centrifuged at 300×g for 5 minutes. The supernatant was discarded and the cell pellet was washed with PBS. The washed pellet was stained with a DNA staining solution (50 μg/ml propidium iodide, and 5 kunitz/ml of RNase A) for 30 minutes at 4° C. in the dark. The DNA content of each cell was measured using a Becton Dickinson FACS Calibur flow cytometer as set out below.
as §5
(§7) Table 1 gives figures for cell membrane permeability of the hepatoma cells, following treatment with paclitaxel and docetaxel. Table 2 details the percentage of apoptotic (sub-G0/G1) cells found after paclitaxel and docetaxel treatment.

[7] = system: Hep 3B cells; assay: as above; format: cell-based, human
Description: as §6, §5, §7

[8] = system: Hep G2 cells; assay: as above; format: cell-based, human; conditions: for apoptotic percentages (sub-G0/G1 cells): 0.001 μM
Description: as §6, §5, §7

[9] = system: Hep G2 cells; assay: DNA fragmentation electrophoresis analysis; format: cell-based, human; conditions: Hep G2, 0.1 and 1 μM, 72 hours
Description: DNA fragmentation assessment was according to the method Herrmann et al, Nucleic Acids Res., 22, 5506-5507, 1994.
Briefly, HEP G2 cells (2×10^7) were treated for 72 hours with paclitaxel and docetaxel as set out above and centrifuged. The thus obtained cell pellets were resuspended with NP-40 lysis buffer (1% NP-40 in 20 mM EDTA, 50 mM Tris-HCl, pH 7.5). After lysis of cells for a few seconds, the supernatants were collected (5 minutes at 1600×g). The extraction was repeated with the same lysis buffer. SDS (final concentration 1%) and RNase were added (final concentration 2.5 μg/μl) to supernatants and incubated for 2 hours at 56° C. followed by digestion with proteinase K (2.5 μg/μl) for 2 hours at 37° C. Then, the mixtures were added to 10 M ammonium acetate prior to 100% ethanol precipitation for 30 minutes at −20° C. The DNA was collected by centrifugation (10 min at 12000 ×g) followed by electrophoresis on 1.5% agarose gel.
In FIG. 3, M is a 100 base pair marker. […] Lanes 2 and 3 show mean paclitaxel (0.1 and 1 μM) treatment groups. Lanes 4 and 5 show mean docetaxel (0.1 and 1 μM) treatment groups.

CC(=O)O[C@@]12CO[C@@H]1C[C@H](O)[C@@]1(C)C(=O)[C@H](O)C3=C(C)[C@@H](OC(=O)[C@H](O)[C@@H](NC(=O)OC(C)(C)C)c4ccccc4)C[C@@](O)([C@@H](OC(=O)c4ccccc4)[C@H]21)C3(C)C [Docetaxel]
viability ([1]; 24 hours): 65.03% | viability ([1]; 72 hours): 48.99% | viability at 10 μM compared with 1 μM ([1]; Hep G2, 10 μM, maximal reduction observed at 1 μM): no further decrease in viability | reduction of viability [2]: 37.06% | maximum cytotoxicity ([3]; 24 hours): 65.34% | maximum cytotoxicity ([3]; 72 hours): 30.71% | cell viability compared with paclitaxel (FIG. 1) ([4]; 0.01 and 0.1 μM, in nearly every case): decreased viability | in vitro activity against HCC cells compared with paclitaxel ([4]; concentrations of up to 1 μM): significantly higher | percentage of cells with intact cell membrane as compared to control ([5]; Hep G2, 24 hrs, 0.01 μM): 94.86 ± 1.3% | percentage of cells with intact cell membrane as compared to control ([5]; Hep G2, 24 hrs, 0.1 μM): 85.49 ± 1.2% | percentage of cells with intact cell membrane as compared to control ([5]; Hep G2, 24 hrs, 1 μM): 81.24 ± 3.2% | percentage of cells with intact cell membrane as compared to control ([5]; Hep G2, 72 hrs, 0.01 μM): 61.06 ± 9.6% | percentage of cells with intact cell membrane as compared to control ([5]; Hep G2, 72 hrs, 0.1 μM): 40.03 ± 9.0% | percentage of cells with intact cell membrane as compared to control ([5]; Hep G2, 72 hrs, 1 μM): 27.42 ± 8.8% | % of apoptotic (sub-G0/G1) cells ([6]; 24 hrs, 0.01 mM (text: μM)): 41.75% | % of apoptotic (sub-G0/G1) cells ([6]; 24 hrs, 0.1 mM (text: μM)): 18.61% | % of apoptotic (sub-G0/G1) cells ([6]; 24 hrs, 1 mM (text: μM)): 22.94% | % of apoptotic (sub-G0/G1) cells ([6]; 72 hrs, 0.01 mM (text: μM)): 56.64% | % of apoptotic (sub-G0/G1) cells ([6]; 72 hrs, 0.1 mM (table head; text: μM)): 58.61% | % of apoptotic (sub-G0/G1) cells ([6]; 72 hrs, 1 mM (table head; text: μM)): 60.98% | % of apoptotic (sub-G0/G1) cells ([7]; 24 hrs, 0.01 mM (text: μM)): 59.14% | % of apoptotic (sub-G0/G1) cells ([7]; 24 hrs, 0.1 mM (table head; text: μM)): 58.67% | % of apoptotic (sub-G0/G1) cells ([7]; 24 hrs, 0.1 mM (table head; text: μM), listed as docetaxel): 58.69% | % of apoptotic (sub-G0/G1) cells ([7]; 24 hrs, 1 mM (text: μM)): 65.74% | % of apoptotic (sub-G0/G1) cells ([7]; 72 hrs, 0.01 mM (text: μM)): 64.12% | % of apoptotic (sub-G0/G1) cells ([7]; 72 hrs, 0.1 mM (text: μM)): 81.66% | % of apoptotic (sub-G0/G1) cells ([7]; 72 hrs, 1 mM (text: μM)): 79.33% | apoptotic percentages (sub-G0/G1 cells) ([8]; Hep G2, 24 hours): 31.02% | % of apoptotic (sub-G0/G1) cells ([8]; Hep G2, 24 hrs, 0.01 mM (text: μM)): 45.24% | % of apoptotic (sub-G0/G1) cells ([8]; Hep G2, 24 hrs, 0.1 mM (text: μM)): 38.77% | % of apoptotic (sub-G0/G1) cells ([8]; Hep G2, 24 hrs, 1 mM (text: μM)): 28.33% | apoptotic percentages (sub-G0/G1 cells) ([8]; Hep G2, 72 hours): 21.92% | % of apoptotic (sub-G0/G1) cells ([8]; Hep G2, 72 hrs, 0.01 mM (text: μM)): 42.45% | % of apoptotic (sub-G0/G1) cells ([8]; Hep G2, 72 hrs, 0.1 mM (text: μM)): 42.44% | % of apoptotic (sub-G0/G1) cells ([8]; Hep G2, 72 hrs, 1 mM (text: μM)): 56.66% | DNA fragmentation (agarose gel, FIG. 3) [9]: induced DNA fragmentation
